Laboratory results from ChEMBL document CHEMBL1146266, “Kojic acid and its manganese and zinc complexes as potential radioprotective agents” (Bioorg Med Chem Lett, 2007).
Active and inactive are the calls of the source. The calls are words filed in the database; no cut-off is given here.

Legend:
Mus musculus [1] = assay: Increase in survival of subcutaneously dosed NMRI mouse irradiated with cobalt 60 gamma relative to control; assay type: functional, organism-based
Mus musculus [2] = assay: Survival of NMRI mouse for 30 days at 214 mg/kg, sc administered 24 hrs before cobalt 60 gamma irradiation; assay type: functional; conditions: light or radiation study, route subcutaneous
Mus musculus [3] = assay: Survival of NMRI mouse subcutaneously dosed 30 mins before cobalt 60 gamma irradiation; assay type: functional
[4] = Toxicity in subcutaneously injected NMRI mouse; assay type: organism-based; conditions: in vivo, sc
Mus musculus [5] = assay: Survival of NMRI mouse for 30 days at 142 mg/kg, sc administered 24 hrs before cobalt 60 gamma irradiation; assay type: functional; conditions: light or radiation study, route subcutaneous
Mus musculus [6] = assay: Survival of NMRI mouse for 30 days at 71 mg/kg, sc administered 24 hrs before cobalt 60 gamma irradiation; assay type: functional; conditions: light or radiation study, route subcutaneous

| Compound | Activity (Mus musculus [1]) | survival at 214 mg/kg (Mus musculus [2]) [%] | Survival (Mus musculus [3]) [%] | LD50 [4] [mg/kg] | survival at 142 mg/kg (Mus musculus [5]) [%] | survival at 71 mg/kg (Mus musculus [6]) [%] |
| --- | --- | --- | --- | --- | --- | --- |
| NCCCNCCSP(=O)(O)O [AMIFOSTINE] | Active | 81 | 90 | – | – | – |
| O=c1cc(CO)occ1O [KOJIC ACID] | Active | – | – | 1400 | 63 | 28 |
